This is an account of results in ChEMBL document CHEMBL1201862, “PubChem BioAssay data set” (2004).

SMILES strings stand for the structures.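 48-hour exposure; five concentrations; linearly interpolated endpoints. GI50: concentration for 50% inhibition of growth.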 Calls of active or inactive are those of the source. Rule as the data show it: active = GI50 up to about 1.1 µM and inactive = higher.

Among the test systems are SK-MEL-2; COLO 205; CAKI-1; CCRF-CEM; SK-MEL-5; EKVX; OVCAR-5; OVCAR-3; UO-31; HT-29; LOX IMVI; HL-60; ACHN; HOP-62; UACC-257; HOP-92; NCI-H522; A498; IGROV-1; SF-539.
Common to all, as to assay: DTP human tumour cell line panel, 48 h

The GI50 is the concentration at which growth is held to half of that of the control.

For the compound `COc1cccc(/C=C/C(=O)N2CC(CCl)c3c2cc(N)c2ccccc32)c1` (centres undefined), the GI50 was 0.00834 µM (active) with SK-MEL-2; 0.0146 µM (active) in the experiment on COLO 205; 0.000566 µM (active) in the experiment with CAKI-1; < 0.01 µM (active) with CCRF-CEM; < 0.01 µM (active) with SK-MEL-5; 0.0142 µM (active) in the experiment with EKVX. For the same compound, the concentration for 50% growth inhibition (GI50) in the experiment on OVCAR-5 was 0.00804 µM (active); with OVCAR-3, < 0.01 µM (active); in the experiment with UO-31, 0.00171 µM (active); in the experiment on HT-29, < 0.01 µM (active); with LOX IMVI, 0.000548 µM (active); with HL-60, < 0.01 µM (active). Besides, the concentration for 50% growth inhibition (GI50) is 0.000264 µM (active) in the experiment on ACHN; < 0.01 µM (active) in the experiment on HOP-62; 0.0193 µM (active) in the experiment on UACC-257; 0.0993 µM (active) in the experiment on HOP-92; 0.00045 µM (active) with NCI-H522; 0.00665 µM (active) in the experiment with A498.
As for `CN(NC(=O)c1cccs1)C1=NCCCN1`, the GI50 with SK-MEL-2 was > 100 µM (inactive); with COLO 205, > 100 µM (inactive); in the experiment on CCRF-CEM it was > 100 µM (inactive); in the experiment with SK-MEL-5, > 100 µM (inactive); in the experiment on EKVX it was 85.9 µM (inactive); with OVCAR-5, > 100 µM (inactive). For the same compound, the GI50 in the experiment on OVCAR-3, in the experiment on UO-31, in the experiment on HT-29, with LOX IMVI, with IGROV-1 and in the experiment with HL-60 was > 100 µM (inactive) each time. Besides, the GI50 in the experiment with ACHN, in the experiment with HOP-62, with UACC-257, with HOP-92, with NCI-H522 and with SF-539 was > 100 µM (inactive) throughout. Further, the GI50 with A498 was > 100 µM (inactive).
Turning to `CCOC(=O)/C(=C/c1cn(C(C)=O)c2ccccc12)P(=O)(OC)OC`, the GI50 in the experiment with SK-MEL-2 was 31.1 µM (inactive); with COLO 205 it was > 10 µM (inactive); with CAKI-1, 31.9 µM (inactive); with CCRF-CEM it was 30 µM (inactive); in the experiment with SK-MEL-5, 23.1 µM (inactive); in the experiment with OVCAR-5 it was 40.6 µM (inactive). In addition, the GI50 in the experiment with OVCAR-3 was 20.3 µM (inactive); with HT-29, 40.5 µM (inactive); with LOX IMVI it was 25.3 µM (inactive); with IGROV-1, 25.6 µM (inactive); in the experiment on HL-60, 18 µM (inactive); in the experiment with ACHN it was 31.4 µM (inactive). Further, the GI50 in the experiment with HOP-62 was 63.4 µM (inactive); in the experiment with UACC-257, 19.1 µM (inactive); in the experiment on HOP-92, 31.1 µM (inactive); in the experiment with NCI-H522 it was 30.5 µM (inactive); in the experiment on A498, 15.3 µM (inactive).
In the case of `COC(=O)C(C(=O)C(=O)Nc1ccc(C)cc1C)c1csc(-n2nc(-c3ccccc3)cc2-c2ccccc2)n1` (centres undefined), the GI50 in the experiment on COLO 205 was > 100 µM (inactive); in the experiment on CAKI-1 it was > 100 µM (inactive); in the experiment on CCRF-CEM, 83.2 µM (inactive); in the experiment with EKVX, 73.3 µM (inactive); with OVCAR-5, 49.9 µM (inactive); with OVCAR-3 it was 86.5 µM (inactive). In addition, the GI50 in the experiment with UO-31 is 45.6 µM (inactive); with HT-29, 31.4 µM (inactive); in the experiment with LOX IMVI, 80 µM (inactive); with IGROV-1 it was > 100 µM (inactive); with HL-60 it was > 100 µM (inactive); in the experiment on ACHN, 53.5 µM (inactive). Further, the GI50 in the experiment with HOP-62, in the experiment on UACC-257, in the experiment on HOP-92, in the experiment on NCI-H522 and in the experiment on A498 was > 100 µM (inactive) each time.
Turning to `CC(C)(C)C(=O)OCC1OC(N=[N+]=[N-])C(OC(=O)C(C)(C)C)C(OC(=O)C(C)(C)C)C1OC(=O)C(C)(C)C` (centres undefined), the GI50 in the experiment on SK-MEL-2, with COLO 205, in the experiment on CAKI-1, in the experiment on CCRF-CEM, in the experiment with SK-MEL-5 and with EKVX was > 100 µM (inactive) throughout. Besides, the GI50 with OVCAR-5 is > 100 µM (inactive); with OVCAR-3 it was > 100 µM (inactive); in the experiment on UO-31, > 100 µM (inactive); in the experiment with HT-29, > 100 µM (inactive); in the experiment with IGROV-1, > 100 µM (inactive); in the experiment with HL-60, 58.6 µM (inactive). Further, the GI50 in the experiment with ACHN was > 100 µM (inactive); in the experiment on HOP-62, > 100 µM (inactive); with UACC-257, 82.2 µM (inactive); with HOP-92 it was > 100 µM (inactive); in the experiment on NCI-H522 it was > 100 µM (inactive); in the experiment with SF-539, > 100 µM (inactive). The GI50 in the experiment with A498 is > 100 µM (inactive).
Turning to `CCN1C(=O)c2cc(OC)c(OC)cc2C(=O)C12OC(=O)c1cc3c(cc12)OCO3` (centres undefined), the GI50 in the experiment on SK-MEL-2 was 20.2 µM (inactive); with COLO 205, > 100 µM (inactive); with CAKI-1, > 100 µM (inactive); in the experiment on CCRF-CEM, 35.6 µM (inactive); in the experiment on SK-MEL-5 it was 85.9 µM (inactive); with EKVX it was > 100 µM (inactive). The GI50 in the experiment on OVCAR-5 was > 100 µM (inactive); in the experiment on OVCAR-3 it was 63.5 µM (inactive); with UO-31, > 100 µM (inactive); in the experiment with HT-29 it was 87.3 µM (inactive); in the experiment on LOX IMVI it was 40.7 µM (inactive); with IGROV-1, 97.9 µM (inactive). In addition, the GI50 was > 100 µM (inactive) in the experiment with ACHN; 49.4 µM (inactive) with HOP-62; > 100 µM (inactive) with UACC-257; 55.3 µM (inactive) in the experiment with HOP-92; > 100 µM (inactive) in the experiment with NCI-H522; 53.2 µM (inactive) in the experiment on SF-539. In addition, the GI50 in the experiment with A498 is > 100 µM (inactive).
For `CC(C)(Br)C1(O)CCCN1C(=O)c1ccccc1` (centres undefined), the GI50 in the experiment on SK-MEL-2, in the experiment with COLO 205, with CCRF-CEM, in the experiment with SK-MEL-5, in the experiment on EKVX and with OVCAR-5 was > 100 µM (inactive) each time. Besides, the GI50 in the experiment on OVCAR-3, with UO-31, with HT-29, with LOX IMVI, in the experiment on IGROV-1 and in the experiment on HL-60 was > 100 µM (inactive) throughout. For the same compound, the GI50 with ACHN, in the experiment on UACC-257, in the experiment on HOP-92, in the experiment on NCI-H522, in the experiment with SF-539 and in the experiment on A498 was > 100 µM (inactive) in each case.
Consider `CCCCNC1=C2C(=O)NN=C2CO1`, for which the GI50 with SK-MEL-2, with COLO 205, with CAKI-1, in the experiment on CCRF-CEM, with SK-MEL-5 and with EKVX was > 100 µM (inactive) each time. In addition, the GI50 with OVCAR-5, in the experiment on UO-31, in the experiment with HT-29, in the experiment with LOX IMVI, in the experiment with IGROV-1 and with HL-60 was > 100 µM (inactive) each time. Moreover, the GI50 in the experiment with ACHN, in the experiment on HOP-62, with UACC-257, with HOP-92, with NCI-H522 and in the experiment with SF-539 was > 100 µM (inactive) each time. The GI50 with A498 was > 100 µM (inactive).
With `COC[C@@H](Cc1ccc(OC)c(OC)c1)[C@@H](COC)Cc1ccc(OC)c(OC)c1`, the GI50 in the experiment on SK-MEL-2 is > 100 µM (inactive); with COLO 205, > 100 µM (inactive); with CCRF-CEM it was 56.5 µM (inactive); in the experiment on SK-MEL-5 it was 51.9 µM (inactive); with EKVX, > 100 µM (inactive); in the experiment with OVCAR-5, > 100 µM (inactive). The GI50 in the experiment with OVCAR-3, in the experiment on UO-31, in the experiment on HT-29, in the experiment with LOX IMVI, with IGROV-1 and in the experiment with HL-60 was > 100 µM (inactive) each time. Besides, the GI50 was > 100 µM (inactive) in the experiment on ACHN; > 100 µM (inactive) in the experiment with UACC-257; 57.9 µM (inactive) in the experiment on HOP-92; 64.1 µM (inactive) with NCI-H522; > 100 µM (inactive) with SF-539; > 100 µM (inactive) in the experiment on A498.
For `CN(C)/N=N/c1ccc([N+](=O)[O-])cc1C(N)=O`, the GI50 was > 100 µM (inactive) with SK-MEL-2; > 100 µM (inactive) in the experiment on COLO 205; > 100 µM (inactive) in the experiment with CAKI-1; > 100 µM (inactive) with CCRF-CEM; > 100 µM (inactive) in the experiment on SK-MEL-5; > 71.3 µM (inactive) with EKVX. For the same compound, the GI50 in the experiment with OVCAR-5 is > 100 µM (inactive); in the experiment on OVCAR-3 it was > 100 µM (inactive); in the experiment on UO-31, > 82 µM (inactive); with HT-29, > 100 µM (inactive); in the experiment with LOX IMVI it was > 100 µM (inactive); with IGROV-1, > 100 µM (inactive). The GI50 in the experiment on HOP-62 was > 90.4 µM (inactive); with UACC-257, > 100 µM (inactive); in the experiment with HOP-92 it was > 100 µM (inactive); in the experiment with NCI-H522, > 92.7 µM (inactive); in the experiment on SF-539 it was > 100 µM (inactive); in the experiment on A498, > 80.9 µM (inactive).
On to `C/C(=N/NS(=O)(=O)c1ccc([N+](=O)[O-])cc1)c1cccc[n+]1[O-]`, for which the GI50 in the experiment with CAKI-1, with CCRF-CEM, in the experiment on SK-MEL-5, in the experiment on EKVX, in the experiment with OVCAR-5 and in the experiment on OVCAR-3 was > 100 µM (inactive) in each case. Besides, the GI50 in the experiment on UO-31, in the experiment on HT-29, with IGROV-1, with HL-60, with ACHN and in the experiment on HOP-62 was > 100 µM (inactive) each time. Further, the GI50 with UACC-257, with HOP-92, in the experiment on NCI-H522, with SF-539 and in the experiment with A498 was > 100 µM (inactive) in each case.
